Data from patent publication US10059669B2, “2-amino-3,5-difluoro-3,6-dimethyl-6-phenyl-3,4,5,6-tetrahydropyridines as BACE1 inhibitors for treating alzheimer's disease” (H. Lundbeck A/S, priority 2014, dated 2018).
Read-outs that look alike come from different tables or passages of the source.

Assays:
[1] = target: T1, BACE1 (Homo sapiens (Human), UniProt P56817); assay: BACE1 efficacy assay (FRET-based, commercial BACE1 kit); format: biochemical; conditions: 10 μM test compound
Procedure: The efficacy assay was performed as a FRET-based assay using a commercially available BACE1 kit (Life Technologies, P2985). 2 μl test compound at 10 μM (final concentration) and 15 μl BACE1 enzyme from the kit (final concentration 3 nM) were preincubated for 15 minutes at room temperature before addition of 15 μl of substrate from the kit (250 nM final concentration) and incubated for additional 90 minutes at room temperature. The assay plate was subsequently read in a Pherastar (Ex540/Em590). The enzyme activity observed in presence of test compound were normalized to the enzyme activity observed in presence of buffer and 10 μM (final concentration) of the high affinity BACE1 reference inhibitor (S)-6-[3-Chloro-5-(5-prop-1-ynyl-pyridin-3-yl)-thiophen-2-yl]-2-imino-3,6-dimethyl-tetra-hydropyrimidin-4-one, respectively. The efficacy of the test compounds was evaluated at 10 μM (final concentration) and defined as the percent inhibition of the enzyme activity using the equation % inhibition=100%−normalized enzyme activity in percent.

[2] = Bioanalysis of brain and plasma samples (exposure, UPLC-MS/MS); format: in vivo, rat; conditions: male, Sprague Dawley, po, 3 hours post dose; for Kp at 3 h: brain and plasma, Rat, read-out: Brain/Plasma ratio; for concentration at 3 h: read-out: Exp
Procedure: Young adult Male Sprague Dawley rats of approximately 250 g weight were purchased from Charles River and received 0-30 mg/kg of vehicle (10% HP betaCD+1M MeSO4, pH 2.5) or test compounds (dissolved in vehicle) only by oral gavage (p.o). The compounds are dosed at a volume of 5 ml/kg. Cohorts of 5-10 animals were established for each treatment condition.
At T=180 minutes after initial dosing the animals were stunned and decapitated with a guillotine. Trunk-blood was sampled in EDTA coated tubes after decapitation of the animal. The blood was centrifuged at 2200G at 4° C. for 15 minutes and the plasma was collected and frozen at −80° C. The blood was aliquoted for Aβ ELISA and DMPK analysis. Immediately following sacrifice, the brain was extracted and split into 2 halves. The right hemibrains were snap frozen on dry ice and stored at −80° C. The left half was dissected; with the front forebrain taken for Aβ ELISA and the remainder used for DMPK analysis. These samples were also snap frozen on dry ice and stored at −80° C. until use for analysis. […]
TC was determined in plasma and brain homogenate using UltraPerformance LC® (UPLC®) chromatography followed by tandem-MS (MS/MS) detection.
Brain homogenate was prepared by homogenizing the brain 1:4 (v/v) with water:2-propanol:DMSO (50:30:20 v/v/v) followed by centrifugation and collection of the supernatant. Calibration standards and QC samples were prepared using a Hamilton robot. 150 μL of ISTD in acetonitrile (1 ng/mL ISTD) was added to 25 μL of calibration standards, QC samples and test samples (plasma and brain homogenate) using a Biomek robot. After centrifugation (6200 g, 4° C., 20 min) 100 μL supernatant from each sample was transferred to a new plate and mixed with 100 μL water with 0.1% formic acid using a Biomek robot (method file InVivo transfer). After a quick centrifugation (6200 g, 4° C., 5 min) the samples were placed in the auto-sampler.
MS/MS detection was done with an Applied Biosystems Sciex API 4000 instrument in positive-ion electrospray ionisation mode. TC and ISTD were detected at a parent>daughter mass to charge ratio (m/z). Nitrogen was used for the nebulizer and collision gases. The peak area correlated linearly with the plasma and brain concentration of the analytes in the range of 1.00-1000 ng/mL plasma and 5.00-5000 ng/g brain (corrected for dilution). If the plasma/brain sample drug concentration was above 1000 ng/mL or 5000 ng/g, the sample was diluted appropriately in blank plasma/blank brain homogenate before analysis.

[3] = target: T1, BACE1; assay: BACE1 binding assay (SPA-based radioligand binding); conditions: pH 4.5, 10 nM radioligand, Ki calculated from IC50
Procedure: The binding assay was performed as SPA-based assay using a biotinylated form of human BACE1 recombinantly expressed and subsequently purified from Freestyle HEK293 cells. The binding assay was run in a 50 mM sodium acetate buffer, pH 4.5 containing 50 mM NaCl and 0.03% Tween-20 in white clear bottom 384 plates (Corning #3653). 10 nM (final concentration) radioligand ([^3H]—N-((1S,2R)-1-benzyl-3-cyclopropylamino-2-hydroxy-propyl)-5-(methanesulfonyl-methyl-amino)-N—((R)-1-phenyl-ethyl)-isophthalamide) (TRQ11569 purchased from GE Healthcare) was mixed with test compound at a given concentration, 6 nM (final concentration) human BACE1 and 25 μg Streptavidin coated PVT core SPA beads (RPNQ0007, GE Healthcare Life Sciences) in a total volume of 40 μl. Several concentrations of each test compound were tested in the assay for IC50 determination. The plates were incubated for one hour at room temperature and counted in a Wallac Trilux counter. Total and non-specific binding were determined using buffer and 1 μM (final concentration) of the high affinity BACE1 reference inhibitor (S)-6-[3-chloro-5-(5-prop-1-ynyl-pyridin-3-yl)-thiophen-2-yl]-2-imino-3,6-dimethyl-tetrahydro-pyrimidin-4-one, respectively. For each test compound, a IC50 value (the concentration mediating 50% inhibition of the specific binding of the radioligand) was determined from concentration-response curve and used to calculate the Ki from the equation Ki=IC50/(1+L/Kd), where L and Kd are the final concentration of the radioligand used in the assay and the dissociation constant of the radioligand, respectively. The Kd of the radioligand was determined from saturation binding experiments.

[4] = test system: P-gp (MDR1); assay: MDCK-MDR1 assay (permeability, efflux ratio); format: in vitro ADME; conditions: dog, Papp BA/Papp AB, 60-minute incubation, Pgp substrate when ≥2
Procedure: The permeability of the test compounds was assessed in MDCK-MDR1 cells that were cultured to confluency (4-6 days) in a 96 transwell plate. Test compounds were diluted with the transport buffer (HBSS+1% BSA) to a concentration of 0.5 μM and applied to the apical or basolateral side of the cell monolayer. Permeation of the test compounds from A to B direction or B to A direction was determined in triplicate over a 60-minute incubation time at 37° C. and 5% CO2 with a relative humidity of 95%. Test compounds were quantified by LC-MS/MS analysis based on the peaks area ratios of analyte/IS in both the receiver and donor wells of the transwell plate.
The apparent permeability coefficient Papp (cm/s) was calculated using the equation: Papp=(dCr/dt)×Vr/(A×C0)
Where dCr/dt is the cumulative concentration of compound in the receiver chamber as a function of time (M/s); Vr is the solution volume in the receiver chamber (0.05 mL on the apical side; 0.25 mL on the basolateral side); A is the surface area for the transport, i.e. 0.0804 cm^2 for the area of the monolayer; C0 is the initial concentration in the donor chamber (VIM).
Compounds are classified Pgp substrates when efflux ratio (Papp BA/Papp AB) is ≥2.

T1 sequence (P56817 46-501): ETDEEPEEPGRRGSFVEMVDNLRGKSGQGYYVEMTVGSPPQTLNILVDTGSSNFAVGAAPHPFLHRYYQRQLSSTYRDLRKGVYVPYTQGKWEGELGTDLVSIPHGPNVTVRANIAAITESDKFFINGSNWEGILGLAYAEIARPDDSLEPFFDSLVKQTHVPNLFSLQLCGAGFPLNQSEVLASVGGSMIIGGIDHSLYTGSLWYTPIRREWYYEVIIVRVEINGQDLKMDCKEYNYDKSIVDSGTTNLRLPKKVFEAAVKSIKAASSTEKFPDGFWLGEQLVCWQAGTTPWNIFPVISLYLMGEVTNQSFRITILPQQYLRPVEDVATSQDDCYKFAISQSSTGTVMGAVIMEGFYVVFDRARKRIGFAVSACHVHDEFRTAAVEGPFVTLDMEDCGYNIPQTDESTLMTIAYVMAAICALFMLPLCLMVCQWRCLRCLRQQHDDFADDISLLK

| Compound | inhibition at 10 µM [1] [%] | Kp at 3 h ([2]; 10 mg/kg p.o.) | Kp at 3 h ([2]; 30 mg/kg p.o.) | concentration at 3 h ([2]; Brain Rat, 10 mg/kg p.o.) [ng/g] | concentration at 3 h ([2]; Brain Rat, 30 mg/kg p.o.) [ng/g] | concentration at 3 h ([2]; Plasma Rat, 10 mg/kg p.o.) [ng/g] | concentration at 3 h ([2]; Plasma Rat, 30 mg/kg p.o.) [ng/g] | Ki [3] [nM] | efflux ratio at 60 min, 0.5 μM [4] | Kp at 3 h ([2]; 3 mg/kg p.o.) | concentration at 3 h ([2]; Brain Rat, 3 mg/kg p.o.) [ng/g] | concentration at 3 h ([2]; Plasma Rat, 3 mg/kg p.o.) [ng/g] |
| --- | --- | --- | --- | --- | --- | --- | --- | --- | --- | --- | --- | --- |
| COc1ccc(C(=O)Nc2ccc(F)c([C@@]3(C)N=C(N)[C@@](C)(F)C[C@@H]3F)c2)nc1 [Compound 3, N-(3-((2R,3S,5S)-6-amino-3,5-difluoro-2,5-dimethyl-2,3,4,5-tetrahydropyridin-2-yl)-4-fluorophenyl)-5-methoxypicolinamide] | 102 | 1.4 | 0.83 | 671 | 1510 | 489 | 1830 | 23 | 0.96 |  |  |  |
| [2H]C([2H])([2H])Oc1ccc(C(=O)Nc2ccc(F)c([C@@]3(C)N=C(N)[C@@](C)(F)C[C@@H]3F)c2)nc1 [Compound 19, N-(3-((2R,3S,5S)-6-amino-3,5-difluoro-2,5-dimethyl-2,3,4,5-tetrahydropyridin-2-yl)-4-fluorophenyl)-5-(methoxy-d3)picolinamide] | 106 | 2.2 | 2.3 | 1020 | 2770 | 473 | 1200 | 20 | 0.79 |  |  |  |
| [2H]C([2H])([2H])Oc1cnc(C(=O)Nc2ccc(F)c([C@@]3(C)N=C(N)[C@@](C)(F)C[C@@H]3F)c2)cn1 [Compound 20, N-(3-((2R,3S,5S)-6-amino-3,5-difluoro-2,5-dimethyl-2,3,4,5-tetrahydropyridin-2-yl)-4-fluorophenyl)-5-(methoxy-d3)pyrazine-2-carboxamide] | 106 |  |  |  |  |  |  | 21 | 0.85 | 2.2 | 610 | 272 |
